Source: patent publication US10968462B2, “Plants having increased tolerance to herbicides” (BASF AGRO B.V., priority 2013, dated 2021)
“And” between values parts separate entries of the source, which are not always exact repeats. Identical values can stand only once.

System: transgenic soybean cv Jake
Assay: Soybean greenhouse spray test, clones from T0 individuals, injury 0-9 point scale 1 week after treatment (Table 7A)
Assay type: in vivo, Glycine max
Description: Soybean cv Jake was transformed as previously described by Siminszky et al., Phytochem Rev. 5:445-458 (2006). After regeneration, transformants were transplanted to soil in small pots, placed in growth chambers (16 hr day/8 hr night; 25° C. day/23° C. night; 65% relative humidity; 130-150 microE m-2 s-1) and subsequently tested for the presence of the T-DNA via Taqman analysis. After a few weeks, healthy, transgenic positive, single copy events were transplanted to larger pots and allowed to grow in the growth chamber. An optimal shoot for cutting was about 3-4 inches tall, with at least two nodes present. Each cutting was taken from the original transformant (mother plant) and dipped into rooting hormone powder (indole-3-butyric acid, IBA). The cutting was then placed in oasis wedges inside a bio-dome. The mother plant was taken to maturity in the greenhouse and harvested for seed. Wild type cuttings were also taken simultaneously to serve as negative controls. The cuttings were kept in the bio-dome for 5-7 days and then transplanted to 3 inch pots and then acclimated in the growth chamber for two more days. […] Other herbicides, such as AHAS (ALS—Acetolactate Synthase) inhibiting herbicides were also tested in a similar fashion for confirming cross resistance to other modes of action: Tritosulfuron, Florasulam, Metsulfuron, Rimsulfuron. Herbicide injury evaluations were taken at 2, 7, 14 and 21 days after treatment.
• 0 No Injury • 1 Minimal injury, only a few patches of leaf injury or chlorosis. • 2 Minimal injury with slightly stronger chlorosis. Overall growth points remain undamaged. • 3 Slightly stronger injury on secondary leaf tissue, but primary leaf and growth points are still undamaged. • 4 Overall plant morphology is slightly different, some chlorosis and necrosis in secondary growth points and leaf tissue. Stems are intact. Regrowth is highly probable within 1 week. • 5 Overall plant morphology is clearly different, some chlorosis and necrosis on a few leaves and growth points, but primary growth point is intact. Stem tissue is still green. Regrowth is highly probably within 1 week. • 6 Strong injury can be seen on the new leaflet growth. Plant has a high probability to survive only through regrowth at different growth points. Most of the leaves are chlorotic/necrotic but stem tissue is still green. May have regrowth but with noticeable injured appearance. • 7 Most of the active growth points are necrotic. There may be a single growth point that could survive and may be partially chlorotic or green and partially necrotic. Two leaves may still be chlorotic with some green; the rest of the plant including stem is necrotic. • 8 Plant will likely die, and all growth points are necrotic. One leaf may still be chlorotic with some green. The remainder of the plant is necrotic. • 9 Plant is dead. • * Not tested

## CC(C)N(C)S(=O)(=O)NC(=O)c1cc(-n2c(=O)cc(C(F)(F)F)n(C)c2=O)c(F)cc1Cl [Saflufenacil, saflufenacil]
Saflufenacil 12.5 g ai/ha, GOI AmtuPPX2L_F420L stacked with Bradi_1g07930.1_Zm
  injury (0-9 point scale) 1 week after treatment: 6 and 5 and 0 (2×) and 1 (2×)
Saflufenacil 12.5 g ai/ha, GOI Bradi_1g07930.1_Zm
  injury (0-9 point scale) 1 week after treatment: 4 (2×) and 1 and 6 (3×) and 0
Saflufenacil 25 g ai/ha, GOI AmtuPPX2L_F420L stacked with Bradi_1g07930.1_Zm
  injury (0-9 point scale) 1 week after treatment: 6 and 0 (2×) and 2 (2×)
Saflufenacil 25 g ai/ha, GOI Bradi_1g07930.1_Zm
  injury (0-9 point scale) 1 week after treatment: 6 (4×) and 5 (2×) and 1
Saflufenacil 50 g ai/ha, GOI AmtuPPX2L_F420L stacked with Bradi_1g07930.1_Zm
  injury (0-9 point scale) 1 week after treatment: 5 (2×) and 6 and 1 (3×) and 2 (3×)
Saflufenacil 50 g ai/ha, GOI AmtuPPX2L_R128A_F420L stacked with Bradi_1g07930.1_Zm
  injury (0-9 point scale) 1 week after treatment: 1
Saflufenacil 50 g ai/ha, GOI AmtuPPX2L_R128A_F420V stacked with Bradi_1g07930.1_Zm
  injury (0-9 point scale) 1 week after treatment: 1 (4×) and 2 (2×) and 6 and 4 and 3
Saflufenacil 50 g ai/ha, GOI Bradi_1g07930.1_Zm
  injury (0-9 point scale) 1 week after treatment: 6 (2×) and 5
Saflufenacil 100 g ai/ha, GOI AmtuPPX2L_F420L stacked with Bradi_1g07930.1_Zm
  injury (0-9 point scale) 1 week after treatment: 3 and 6 and 2
Saflufenacil 100 g ai/ha, GOI AmtuPPX2L_R128A_F420L stacked with Bradi_1g07930.1_Zm
  injury (0-9 point scale) 1 week after treatment: 0 and 3 and 1 (3×) and 2 (4×) and 6 and 4
Saflufenacil 100 g ai/ha, GOI AmtuPPX2L_R128A_F420V stacked with Bradi_1g07930.1_Zm
  injury (0-9 point scale) 1 week after treatment: 3 (5×) and 0 and 1 and 7 and 2 and 5 and 4
Saflufenacil 100 g ai/ha, GOI Bradi_1g07930.1_Zm
  injury (0-9 point scale) 1 week after treatment: 8 and 6
Saflufenacil 200 g ai/ha, GOI AmtuPPX2L_F420L stacked with Bradi_1g07930.1_Zm
  injury (0-9 point scale) 1 week after treatment: 2 (2×) and 6
Saflufenacil 200 g ai/ha, GOI AmtuPPX2L_R128A_F420L stacked with Bradi_1g07930.1_Zm
  injury (0-9 point scale) 1 week after treatment: 1 and 5 (2×) and 3 (2×) and 2 (4×) and 0 and 4
Saflufenacil 200 g ai/ha, GOI AmtuPPX2L_R128A_F420V stacked with Bradi_1g07930.1_Zm
  injury (0-9 point scale) 1 week after treatment: 2 (4×) and 5 (2×) and 3 (2×) and 7 and 6 and 8
